The results in this text go back to article PMC10176470, “Engaging a Non-catalytic Cysteine Residue Drives Potent and Selective Inhibition of Caspase-6” (Journal of the American Chemical Society, 2023).

Common to all, as to assay type: cell-based
Experiment [1] concerns the target proteins of HEK293T cells transiently overexpressing caspase-6 (Homo sapiens, UniProt P08238). The settings on record: exp_ref Probe; protein HSP90AB1 (P08238); analysis C6.
In experiment [2] the target is T1, proteins of HEK293T cells transiently overexpressing caspase-6 (Homo sapiens, UniProt O00410).
T1 sequence (O00410 1-1097): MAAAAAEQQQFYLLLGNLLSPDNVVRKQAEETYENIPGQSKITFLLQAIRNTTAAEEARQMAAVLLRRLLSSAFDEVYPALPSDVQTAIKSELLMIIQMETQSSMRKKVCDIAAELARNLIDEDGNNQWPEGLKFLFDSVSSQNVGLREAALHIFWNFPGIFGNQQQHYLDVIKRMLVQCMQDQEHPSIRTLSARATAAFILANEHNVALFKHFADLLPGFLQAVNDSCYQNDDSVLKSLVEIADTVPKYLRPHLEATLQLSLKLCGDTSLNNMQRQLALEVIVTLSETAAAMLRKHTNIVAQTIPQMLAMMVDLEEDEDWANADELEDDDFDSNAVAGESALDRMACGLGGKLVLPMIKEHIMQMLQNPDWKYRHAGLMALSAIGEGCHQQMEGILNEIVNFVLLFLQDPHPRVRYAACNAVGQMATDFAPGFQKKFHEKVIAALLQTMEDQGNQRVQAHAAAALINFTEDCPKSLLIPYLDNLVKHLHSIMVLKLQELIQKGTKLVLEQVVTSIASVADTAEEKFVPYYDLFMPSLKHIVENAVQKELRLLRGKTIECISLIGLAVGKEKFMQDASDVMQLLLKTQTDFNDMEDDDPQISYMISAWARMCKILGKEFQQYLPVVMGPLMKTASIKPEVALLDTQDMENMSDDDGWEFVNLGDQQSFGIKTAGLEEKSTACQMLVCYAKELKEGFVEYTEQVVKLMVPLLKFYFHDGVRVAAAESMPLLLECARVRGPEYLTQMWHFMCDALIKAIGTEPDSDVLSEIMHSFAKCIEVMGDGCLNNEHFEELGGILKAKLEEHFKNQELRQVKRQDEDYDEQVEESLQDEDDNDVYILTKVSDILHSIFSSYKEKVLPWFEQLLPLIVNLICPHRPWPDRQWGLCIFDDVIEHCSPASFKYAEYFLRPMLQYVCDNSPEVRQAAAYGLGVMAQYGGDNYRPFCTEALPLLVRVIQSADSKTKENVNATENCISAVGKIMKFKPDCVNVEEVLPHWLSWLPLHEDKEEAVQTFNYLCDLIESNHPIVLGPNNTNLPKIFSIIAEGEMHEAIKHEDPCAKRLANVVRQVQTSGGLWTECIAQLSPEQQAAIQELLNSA
The settings on record: protein IPO5 (O00410).

Experiment [3] addresses proteins of HEK293T cells transiently overexpressing caspase-6 (Homo sapiens, UniProt Q9H3N1). The following applies: protein TMX1 (Q9H3N1); exp_ref Probe; analysis C6.
Experiment [4] addresses proteins of HEK293T cells transiently overexpressing caspase-6 (Homo sapiens, UniProt P13645). The following applies: Probe; protein KRT10 P13645.
In experiment [5] the target is proteins of HEK293T cells transiently overexpressing caspase-6 (Homo sapiens, UniProt Q07812). The settings on record: Probe; protein BAX Q07812.
Chain of proteins of HEK293T cells transiently overexpressing caspase-6 (Homo sapiens, UniProt Q07812) (Q07812 whole entry): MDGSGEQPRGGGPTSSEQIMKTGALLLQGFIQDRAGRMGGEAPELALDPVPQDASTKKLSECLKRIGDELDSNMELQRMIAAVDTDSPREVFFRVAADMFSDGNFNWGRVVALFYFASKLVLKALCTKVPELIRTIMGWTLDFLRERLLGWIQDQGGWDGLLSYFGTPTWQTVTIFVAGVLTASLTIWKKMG
The target of experiment [6] is proteins of HEK293T cells transiently overexpressing caspase-6 (Homo sapiens, UniProt Q92688). The settings on record: protein ANP32B (Q92688).
Chain of proteins of HEK293T cells transiently overexpressing caspase-6 (Homo sapiens, UniProt Q92688) (Q92688 whole entry): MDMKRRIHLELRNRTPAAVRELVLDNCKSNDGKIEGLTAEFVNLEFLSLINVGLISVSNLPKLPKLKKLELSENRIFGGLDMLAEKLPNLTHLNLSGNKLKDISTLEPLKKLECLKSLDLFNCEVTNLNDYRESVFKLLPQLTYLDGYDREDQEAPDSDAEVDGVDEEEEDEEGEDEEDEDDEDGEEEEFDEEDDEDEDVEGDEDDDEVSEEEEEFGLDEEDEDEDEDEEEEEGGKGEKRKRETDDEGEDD
Experiment [7] concerns the target proteins of HEK293T cells transiently overexpressing caspase-6 (Homo sapiens, UniProt P07737). The settings on record: exp_ref Probe; protein PFN1 (P07737); analysis C6.
In experiment [8] the target is proteins of HEK293T cells transiently overexpressing caspase-6 (Homo sapiens, UniProt O75874). The following applies: exp_ref Probe; protein IDH1 (O75874); analysis C6.
Experiment [9] concerns the target proteins of HEK293T cells transiently overexpressing caspase-6 (Homo sapiens, UniProt P36578). The following applies: exp_ref Probe; protein RPL4 (P36578); analysis C6.
In experiment [10] the target is proteins of HEK293T cells transiently overexpressing caspase-6 (Homo sapiens, UniProt P16615). The following applies: protein ATP2A2 (P16615).
Chain of proteins of HEK293T cells transiently overexpressing caspase-6 (Homo sapiens, UniProt P16615) (P16615 whole entry): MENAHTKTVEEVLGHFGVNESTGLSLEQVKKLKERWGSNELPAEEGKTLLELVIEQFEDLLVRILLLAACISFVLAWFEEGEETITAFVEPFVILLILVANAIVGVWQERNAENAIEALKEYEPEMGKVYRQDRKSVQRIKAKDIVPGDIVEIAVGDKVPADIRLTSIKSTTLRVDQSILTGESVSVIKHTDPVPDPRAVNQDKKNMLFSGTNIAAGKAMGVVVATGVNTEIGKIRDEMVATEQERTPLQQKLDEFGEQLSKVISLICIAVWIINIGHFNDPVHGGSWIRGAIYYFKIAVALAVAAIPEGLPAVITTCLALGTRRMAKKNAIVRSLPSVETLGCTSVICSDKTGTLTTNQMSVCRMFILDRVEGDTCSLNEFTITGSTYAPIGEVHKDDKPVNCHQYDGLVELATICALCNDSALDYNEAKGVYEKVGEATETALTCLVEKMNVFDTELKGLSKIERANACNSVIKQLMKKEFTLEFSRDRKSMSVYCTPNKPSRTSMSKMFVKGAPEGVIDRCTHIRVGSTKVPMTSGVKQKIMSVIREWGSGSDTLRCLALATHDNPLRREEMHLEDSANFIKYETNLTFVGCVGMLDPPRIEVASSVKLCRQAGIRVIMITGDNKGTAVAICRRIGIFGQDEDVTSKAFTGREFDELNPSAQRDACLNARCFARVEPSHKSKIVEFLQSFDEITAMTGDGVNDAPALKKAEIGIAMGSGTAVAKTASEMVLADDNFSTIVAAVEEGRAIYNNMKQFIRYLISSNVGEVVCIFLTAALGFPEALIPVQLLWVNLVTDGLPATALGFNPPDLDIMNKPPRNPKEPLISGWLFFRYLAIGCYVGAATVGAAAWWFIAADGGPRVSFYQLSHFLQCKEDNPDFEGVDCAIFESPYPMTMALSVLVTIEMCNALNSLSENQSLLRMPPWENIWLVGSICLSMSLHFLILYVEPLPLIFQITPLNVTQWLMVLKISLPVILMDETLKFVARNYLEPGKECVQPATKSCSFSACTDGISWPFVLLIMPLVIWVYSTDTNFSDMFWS
Experiment [11] deals with proteins of HEK293T cells transiently overexpressing caspase-6 (Homo sapiens, UniProt P33176). The following applies: Probe; protein KIF5B P33176.
Chain of proteins of HEK293T cells transiently overexpressing caspase-6 (Homo sapiens, UniProt P33176) (P33176 whole entry): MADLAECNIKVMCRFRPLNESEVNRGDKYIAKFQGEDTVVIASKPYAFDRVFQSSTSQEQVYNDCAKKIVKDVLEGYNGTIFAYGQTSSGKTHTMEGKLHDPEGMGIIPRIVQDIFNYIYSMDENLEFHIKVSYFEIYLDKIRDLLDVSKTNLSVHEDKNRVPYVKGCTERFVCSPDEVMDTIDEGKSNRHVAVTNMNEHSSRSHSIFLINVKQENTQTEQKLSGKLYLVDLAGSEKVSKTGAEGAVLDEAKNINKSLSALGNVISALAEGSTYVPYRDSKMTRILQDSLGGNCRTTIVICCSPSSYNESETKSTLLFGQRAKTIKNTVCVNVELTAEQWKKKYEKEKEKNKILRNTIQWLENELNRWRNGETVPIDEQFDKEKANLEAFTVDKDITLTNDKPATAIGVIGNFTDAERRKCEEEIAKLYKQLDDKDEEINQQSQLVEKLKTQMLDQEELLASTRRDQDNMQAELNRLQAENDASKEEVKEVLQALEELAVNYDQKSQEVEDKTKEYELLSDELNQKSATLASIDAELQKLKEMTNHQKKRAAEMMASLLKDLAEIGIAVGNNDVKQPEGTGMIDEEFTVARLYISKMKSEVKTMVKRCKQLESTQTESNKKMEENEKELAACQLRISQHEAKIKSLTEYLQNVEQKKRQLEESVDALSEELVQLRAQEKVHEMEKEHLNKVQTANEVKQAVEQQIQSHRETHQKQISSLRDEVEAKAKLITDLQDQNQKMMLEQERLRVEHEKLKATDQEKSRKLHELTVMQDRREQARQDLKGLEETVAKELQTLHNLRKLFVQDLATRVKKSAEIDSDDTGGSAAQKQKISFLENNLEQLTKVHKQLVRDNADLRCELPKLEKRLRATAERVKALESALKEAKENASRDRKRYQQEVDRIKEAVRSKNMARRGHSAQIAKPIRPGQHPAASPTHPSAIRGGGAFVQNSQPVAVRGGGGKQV
Experiment [12] deals with proteins of HEK293T cells transiently overexpressing caspase-6 (Homo sapiens, UniProt P14174). The settings on record: Probe; protein MIF P14174.
Chain of proteins of HEK293T cells transiently overexpressing caspase-6 (Homo sapiens, UniProt P14174) (P14174 whole entry): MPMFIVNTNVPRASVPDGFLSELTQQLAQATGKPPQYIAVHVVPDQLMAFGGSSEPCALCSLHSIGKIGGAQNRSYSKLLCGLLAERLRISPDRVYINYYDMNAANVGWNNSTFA
The target of experiment [13] is proteins of HEK293T cells transiently overexpressing caspase-6 (Homo sapiens, UniProt O75533). The settings on record: exp_ref Probe; protein SF3B1 (O75533); analysis C6.
Chain of proteins of HEK293T cells transiently overexpressing caspase-6 (Homo sapiens, UniProt O75533) (O75533 whole entry): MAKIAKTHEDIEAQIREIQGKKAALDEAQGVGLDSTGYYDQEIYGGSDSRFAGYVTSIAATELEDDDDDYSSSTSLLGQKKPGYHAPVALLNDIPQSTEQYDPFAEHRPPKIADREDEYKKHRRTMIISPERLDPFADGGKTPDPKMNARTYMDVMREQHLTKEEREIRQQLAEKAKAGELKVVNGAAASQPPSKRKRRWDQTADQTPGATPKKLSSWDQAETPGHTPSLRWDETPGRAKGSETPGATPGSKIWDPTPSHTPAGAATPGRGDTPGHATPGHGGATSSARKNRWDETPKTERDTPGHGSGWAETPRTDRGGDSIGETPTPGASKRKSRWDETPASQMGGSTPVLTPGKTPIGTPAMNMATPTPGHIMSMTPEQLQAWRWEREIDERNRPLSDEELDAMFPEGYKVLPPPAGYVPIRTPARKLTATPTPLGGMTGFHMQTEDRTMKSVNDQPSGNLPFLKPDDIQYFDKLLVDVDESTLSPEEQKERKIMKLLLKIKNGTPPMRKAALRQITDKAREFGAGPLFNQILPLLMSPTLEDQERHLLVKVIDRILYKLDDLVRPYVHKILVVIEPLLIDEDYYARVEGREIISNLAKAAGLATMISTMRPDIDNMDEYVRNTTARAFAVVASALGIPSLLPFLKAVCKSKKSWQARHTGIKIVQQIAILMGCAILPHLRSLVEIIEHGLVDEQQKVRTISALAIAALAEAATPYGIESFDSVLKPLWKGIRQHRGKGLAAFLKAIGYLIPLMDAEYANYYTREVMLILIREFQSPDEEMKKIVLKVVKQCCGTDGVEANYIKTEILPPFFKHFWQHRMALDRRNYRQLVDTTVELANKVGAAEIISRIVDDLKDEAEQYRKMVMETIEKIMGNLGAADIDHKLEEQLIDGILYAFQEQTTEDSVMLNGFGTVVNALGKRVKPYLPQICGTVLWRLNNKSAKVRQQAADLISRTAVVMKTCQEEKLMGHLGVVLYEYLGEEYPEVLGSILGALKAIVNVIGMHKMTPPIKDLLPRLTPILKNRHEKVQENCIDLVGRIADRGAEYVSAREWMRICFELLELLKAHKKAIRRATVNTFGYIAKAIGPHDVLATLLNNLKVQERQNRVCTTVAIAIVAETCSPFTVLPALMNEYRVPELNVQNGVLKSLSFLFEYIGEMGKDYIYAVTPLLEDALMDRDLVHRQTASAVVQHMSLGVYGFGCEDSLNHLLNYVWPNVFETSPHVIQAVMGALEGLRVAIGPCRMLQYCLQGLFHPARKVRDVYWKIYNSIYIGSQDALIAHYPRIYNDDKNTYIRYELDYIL

Structures are written as SMILES.

Chain of proteins of HEK293T cells transiently overexpressing caspase-6 (Homo sapiens, UniProt Q9H3N1) (Q9H3N1 27-280): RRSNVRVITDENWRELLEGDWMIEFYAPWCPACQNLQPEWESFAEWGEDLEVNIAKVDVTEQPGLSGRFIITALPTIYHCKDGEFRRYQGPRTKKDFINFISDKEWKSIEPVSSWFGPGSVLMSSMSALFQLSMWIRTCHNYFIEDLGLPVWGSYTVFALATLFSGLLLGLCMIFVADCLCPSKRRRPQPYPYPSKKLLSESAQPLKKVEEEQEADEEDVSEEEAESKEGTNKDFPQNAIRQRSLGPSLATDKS
Chain of proteins of HEK293T cells transiently overexpressing caspase-6 (Homo sapiens, UniProt P07737) (P07737 whole entry): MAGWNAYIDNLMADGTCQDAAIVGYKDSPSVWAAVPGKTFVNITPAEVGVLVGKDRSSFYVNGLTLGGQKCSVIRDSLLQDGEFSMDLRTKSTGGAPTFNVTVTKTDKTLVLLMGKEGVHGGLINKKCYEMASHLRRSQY
Chain of proteins of HEK293T cells transiently overexpressing caspase-6 (Homo sapiens, UniProt P13645) (P13645 whole entry): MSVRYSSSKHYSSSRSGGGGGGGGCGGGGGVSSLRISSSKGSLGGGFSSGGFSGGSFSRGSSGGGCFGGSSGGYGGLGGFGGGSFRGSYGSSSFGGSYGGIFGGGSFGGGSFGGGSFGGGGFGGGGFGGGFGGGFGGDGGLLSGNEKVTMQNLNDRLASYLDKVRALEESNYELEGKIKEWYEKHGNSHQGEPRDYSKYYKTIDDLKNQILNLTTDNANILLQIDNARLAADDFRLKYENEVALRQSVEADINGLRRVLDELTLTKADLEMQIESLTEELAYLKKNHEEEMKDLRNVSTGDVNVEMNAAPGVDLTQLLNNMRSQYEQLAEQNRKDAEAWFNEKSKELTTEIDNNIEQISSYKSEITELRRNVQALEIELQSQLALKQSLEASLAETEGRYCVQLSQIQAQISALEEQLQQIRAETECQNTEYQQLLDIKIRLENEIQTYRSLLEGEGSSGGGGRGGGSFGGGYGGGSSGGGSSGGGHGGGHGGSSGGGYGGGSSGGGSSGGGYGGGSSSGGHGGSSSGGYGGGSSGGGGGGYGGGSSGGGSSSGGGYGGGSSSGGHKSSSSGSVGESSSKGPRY

Turning to `C#CCOc1ccc([C@@H]2C[C@@H](C(=O)Nc3ccc(OC(F)(F)F)cc3)CN(S(=O)(=O)C=C)C2)cc1` (relative stereo) [13-t], the enrich.exp.med was 0.3736 in experiment [1]; 0.788 in experiment [2] (exp_ref Probe, analysis C6); 2.103 in [3]; -7.844 in experiment [4]; -2.1832 in [5]; 2.0761 in [6] (exp_ref Probe, analysis C6). The enrich.exp.med is recorded as -0.1003 in experiment [7]; -0.2162 in experiment [8]; 0.4261 in experiment [9]; 1.516 in experiment [10] (exp_ref Probe, analysis C6); -5.169 in experiment [11]; -1.906 in experiment [12]. The compound further showed an enrich.exp.med in experiment [13] of 0.3273. The values for the enrich.exp.med.lin in [2], in [6] and in experiment [10] were 1.727, 4.217 and 2.861, respectively. Besides, the values for the enrich.exp.med.log2 in [2], in experiment [6] and in experiment [10] were 0.788, 2.0761 and 1.516, respectively.
